These results are taken from patent publication US7601746B2 (Shionogi & Co., Ltd., priority 2003, dated 2009).

The target in this experiment is T1, human TPO receptor (hTPOR) (Homo sapiens, UniProt P40238).
T1 construct: expressed in transfected cells; host or cells: BaF-B03 (murine IL-3 dependent cell line)
T1 sequence (P40238 26-635): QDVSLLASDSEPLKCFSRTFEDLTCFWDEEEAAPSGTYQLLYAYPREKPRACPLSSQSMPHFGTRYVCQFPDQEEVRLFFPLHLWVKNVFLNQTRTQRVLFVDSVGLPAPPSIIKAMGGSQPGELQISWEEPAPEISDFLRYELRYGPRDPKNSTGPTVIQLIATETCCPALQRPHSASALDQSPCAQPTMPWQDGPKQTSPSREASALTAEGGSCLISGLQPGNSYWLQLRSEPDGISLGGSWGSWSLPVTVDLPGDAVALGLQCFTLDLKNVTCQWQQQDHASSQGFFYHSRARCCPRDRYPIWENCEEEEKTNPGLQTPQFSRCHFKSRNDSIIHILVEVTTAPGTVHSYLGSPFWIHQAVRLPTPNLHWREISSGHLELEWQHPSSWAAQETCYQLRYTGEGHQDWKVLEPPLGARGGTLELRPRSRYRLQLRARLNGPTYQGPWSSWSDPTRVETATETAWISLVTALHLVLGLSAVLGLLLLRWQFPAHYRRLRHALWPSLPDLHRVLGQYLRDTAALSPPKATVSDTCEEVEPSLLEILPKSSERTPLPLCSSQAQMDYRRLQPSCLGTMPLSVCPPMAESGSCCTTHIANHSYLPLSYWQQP
The experiment is described as follows: Thrombopoietic activity: proliferation of TPO dependent BaF/hTPOR cells (WST-1, absorbance at 450 nm). Particulars: 20 h + 4 h WST-1, ED50 = half concentration of the concentration showing the maximum thrombopoietic activity. The experiment is classed as cell-based. The essentials:
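Proliferation read-out: WST-1 absorbance at 450 nm after 20 h compound exposure plus 4 h reagent, using IL-3-deprived BaF/hTPOR cells (5×10^4 per well) dependent on human TPO receptor signalling. ED50 defined as half the concentration producing maximal activity.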

pEC50: −log10 of the molar value.

Consider `COC(CCC(C)C)c1cccc(-c2csc(NC(=O)c3cc(F)c(C=C(C)C(=O)O)c(F)c3)n2)c1F` (stereo not drawn) [Compound B11, 3-(2,6-difluoro-4-{4-[2-fluoro-3-(1-methyloxy-4-methylpentyl)phenyl]thiazol-2-ylcarbamoyl}phenyl)-2-methylacrylic acid], for which the pEC50 (Table 1) was 9.09. On to `CCCCCOCCc1cccc(-c2csc(NC(=O)c3cc(F)c(/C=C(\C)C(=O)O)c(F)c3)n2)c1OC` [Compound B1924, (E)-3-(2,6-difluoro-4-{4-[2-methyloxy-3-(2-pentyloxyethyl)phenyl]thiazol-2-ylcarbamoyl)phenyl)-2-methylacrylic acid], for which the pEC50 (Table 2) is 7.69. Take `CC(=Cc1c(F)cc(C(=O)Nc2nc3c(s2)CCc2c(CCCOCC(C)(C)C)cccc2-3)cc1F)C(=O)O` [Compound A6, 3-(2,6-difluoro-4-{4,5-dihydro-6-[3-(2,2-dimethylpropyloxy)propyl]naphtho[1,2-d]thiazol-2-ylcabamoyl}phenyl)-2-methylacrylic acid]: under “Table 1”, the pEC50 was 8.98. Still for that read-out and setting: the value for `CCCCCOCc1cccc(-c2csc(NC(=O)c3cc(F)c(C=C(C)C(=O)O)c(F)c3)n2)c1F` [Compound B33, 3-(2,6-difluoro-4-{4-[2-fluoro-3-(n-pentyloxymethyl)phenyl]thiazol-2-ylcarbamoyl}phenyl)-2-methylacrylic acid] was 8.48; that for `COc1c(CCCOCC(C)C)cccc1-c1csc(NC(=O)c2cc(F)c(/C=C(\C)C(=O)O)c(F)c2)n1` [Compound B1877, (E)-3-(2,6-difluoro-4-{4-[3-(3-isobuyloxypropyl)-2-methyloxyphenyl]thiazol-2-ylcarbamoyl}phenyl)-2-methylacrylic acid] was 7.88. For `CCCCCOCc1cccc(-c2csc(NC(=O)c3cc(Cl)c(C=C(C)C(=O)O)c(Cl)c3)n2)c1F` [Compound B77, 3-{2,6-dichloro-4-[4-(2-fluoro-3-{n-pentyloxymethyl}phenyl)thiazol-2-ylcarbamoyl]phenyl}-2-methylacrylic acid], under “Table 1”, the pEC50 is 8.51.

Turning to `CCC(CC)COCc1cccc(-c2csc(NC(=O)c3cc(Cl)c(/C=C(\OC)C(=O)O)c(Cl)c3)n2)c1OC` [Compound B2026, (Z)-3-(2,6-dichloro-4-{4-[3-(2-ethylbutyloxymethyl)-2-methyloxyphenyl]thiazol-2-ylcarbamoyl}phenyl)-2-methyloxyacrylic acid], the pEC50 (Table 1) was 7.90. The same measure, in the same setting: to `CC(=Cc1c(Cl)cc(C(=O)Nc2nc(-c3cccc(CCCOC(C)C)c3F)cs2)cc1Cl)C(=O)O` [Compound B94, 3-(2,6-dichloro-4-{4-[2-fluoro-3-(3-isopropyloxypropyl)phenyl]thiazol-2-ylcarbamoyl)phenyl]-2-methylacrylic acid] belongs 9.01; to `CCCCCCCCCCC(OC)c1cccc(-c2csc(NC(=O)c3cc(Cl)c(/C=C(\C)C(=O)O)c(Cl)c3)n2)c1OC` (stereo not drawn) [Compound B1060, (E)-3-(2,6-dichloro-4-{4-[2-methyloxy-3-(1-methyloxy-undecyl)phenyl]thiazol-2-ylcarbamoyl}phenyl)-2-methylacrylic acid], 8.41. Still for that read-out and setting: the value for `CCC(CC)COCCCc1cccc(-c2csc(NC(=O)c3cc(Cl)c(C=C(C)C(=O)O)c(Cl)c3)n2)c1F` [Compound B88, 3-[2,6-dichloro-4-(4-[3-[3-(2-ethylbutyloxy)propyl]-2-fluorophenyl]thiazol-2-ylcarbamoyl)phenyl]-2-methylacrylic acid] was 8.51; that for `CCCCOCCCc1cccc(-c2csc(NC(=O)c3cc(F)c(C=C(C)C(=O)O)c(F)c3)n2)c1F` [Compound B49, 3-(4-{4-[3-(3-n-butyloxypropyl)-2-fluorophenyl]thiazol-2-ylcarbamoyl}-2,6-difluorophenyl)-2-methylacrylic acid] was 8.89. The same measure, in the same setting: the value for `CCCCCCOC(CC)c1cccc(-c2csc(NC(=O)c3cc(F)c(C=C(C)C(=O)O)c(F)c3)n2)c1F` (stereo not drawn) [Compound B38, 3-(2,6-difluoro-4-{4-[2-fluoro-3-(1-n-hexyloxypropyl)phenyl]thiazol-2-ylcarbamoyl}phenyl)-2-methylacrylic acid] was 9.21.
